{
  "source": "patent US8906946B2",
  "about": "“TRPM8 receptor antagonists” (Dompe' S.p.A., priority 2011, dated 2014)",
  "key": {"[1]": {"test": "t1/2 i.v. rat", "conditions": "in vivo, iv"}, "[2]": {"biological_target": "human TRPM8 (Homo sapiens, UniProt Q7Z2W7)", "sequence (Q7Z2W7 whole entry)": "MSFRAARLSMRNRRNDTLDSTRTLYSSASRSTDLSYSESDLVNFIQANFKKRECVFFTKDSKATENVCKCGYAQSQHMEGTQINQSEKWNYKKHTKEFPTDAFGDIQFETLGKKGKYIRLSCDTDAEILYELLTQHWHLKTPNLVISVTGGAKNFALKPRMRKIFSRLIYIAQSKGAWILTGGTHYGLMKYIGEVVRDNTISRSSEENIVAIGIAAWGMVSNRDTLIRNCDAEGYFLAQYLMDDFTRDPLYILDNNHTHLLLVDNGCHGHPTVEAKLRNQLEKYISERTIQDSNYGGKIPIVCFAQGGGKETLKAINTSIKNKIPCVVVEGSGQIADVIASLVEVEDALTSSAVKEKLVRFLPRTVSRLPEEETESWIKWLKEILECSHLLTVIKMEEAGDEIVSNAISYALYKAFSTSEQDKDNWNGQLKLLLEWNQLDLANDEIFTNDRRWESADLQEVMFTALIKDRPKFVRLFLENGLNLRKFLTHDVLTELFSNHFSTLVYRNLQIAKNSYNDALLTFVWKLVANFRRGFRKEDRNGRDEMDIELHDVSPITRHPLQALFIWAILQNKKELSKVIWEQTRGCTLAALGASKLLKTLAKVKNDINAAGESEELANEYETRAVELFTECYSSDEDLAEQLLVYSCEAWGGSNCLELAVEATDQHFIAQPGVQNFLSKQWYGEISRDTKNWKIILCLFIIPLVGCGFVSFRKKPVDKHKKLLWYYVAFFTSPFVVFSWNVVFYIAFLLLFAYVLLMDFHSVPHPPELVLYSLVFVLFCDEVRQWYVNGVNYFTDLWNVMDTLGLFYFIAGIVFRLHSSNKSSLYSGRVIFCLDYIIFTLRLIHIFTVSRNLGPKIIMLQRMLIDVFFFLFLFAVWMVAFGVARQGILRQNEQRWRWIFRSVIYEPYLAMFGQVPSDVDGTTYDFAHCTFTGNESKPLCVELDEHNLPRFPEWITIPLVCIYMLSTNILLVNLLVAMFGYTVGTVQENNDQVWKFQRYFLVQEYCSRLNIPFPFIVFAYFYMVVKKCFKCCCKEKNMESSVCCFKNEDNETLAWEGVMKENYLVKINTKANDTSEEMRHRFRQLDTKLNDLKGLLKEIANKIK", "test": "High-throughput FLIPR TETRA calcium fluorescence assay for TRPM8 antagonists in HEK293/hTRPM8 cells", "type": "cell-based", "design": "expressed in transfected cells", "conditions": "agonist Cooling Agent 10 at EC80, Ca2+ fluorescence", "text": "A functional cell-based assay for the identification of TRPM8 receptor antagonists, optimised to allow high throughput screening at FLIPR^TETRA, was developed in HEK293 cells by stable pure clone selection and functional characterization with a fluorescent calcium sensitive dye.\nTRPM8 was cloned into the multiple clonig site of pcDNA3 mammalian expression vector; the obtained construct pcDNA3/hTRPM8 was fully sequence verified and used for the transfection of HEK293 cell line. HEK293 cells stably transfected with TRPM8 gene were maintained in Minimum essential medium. The cells were transfected with the pcDNA3/hTRPM8 vector by electroporation and then selected with medium containing 0.8 mg/ml G418 for 10-15 days.\nThe following commercial compounds were used as ligands: • Activator: Cooling Agent 10 (Takasago CAS N. 87061-04-9) • Blocker: Capsazepine (SIGMA cat #D—5879)\nThe experimental activities were performed using FLIPR^TETRA instruments.\nHEK293 cells stably transfected with TRPM8 gene were maintained in Minimum essential medium.\nThe TRPM8 cell line was analysed for the response to a library of compounds using a Ca^2+ mobilization-dependent fluorescence signal in 384 wells microtiter plate format. The analysis was performed using the FLIPR^TETRA (MDC) with the ICCD Camera.\nThe execution of the assay involved the use of three microtiter plates:\n1. Assay plate, containing cells loaded with dye and prepared as follows:\nCells were seeded at 15000 c/well in Poly-D-Lysine coated 384 wells Microtiter Plates in complete medium (25 μl/well).\n24 h after seeding, the cell plates were washed with Tyrode assay buffer by the Microplate Washer and 10 μL of Tyrode assay buffer was left in each well.\nCells were then loaded with 10 μL/well of the Fluo-4 NW dye solution by CyBi®-Well pipettor. Each bottle of Fluo4-NW dye (Molecular Probes cat. #F36206, component A) was re-suspended in 8 mL of Tyrode assay buffer and supplemented with 100 μL of water-soluble probenecid (MolecularProbes cat.#F36206, component B).\nDye loaded cell plates were incubated for 1 h at room temperature.\n2. Compound Dilution Plate (FIG. 1), containing diluted test compounds, formulated as follows: • Column 1: wells containing Assay Buffer plus DMSO 0.5% final • Column 2: wells alternating Max Signal Control in first injection (Maximum Response: Cooling Agent 10 at EC100, 100 μM) and Min Signal Control in first injection (Assay buffer plus 0.5% DMSO final); • Columns 3-22: wells containing Assay Buffer plus 0.5% DMSO final. To these wells the compounds to be tested were added at 3× concentration. • Column 23: alternating wells of Max Signal Control in second injection (Assay buffer) and Min Signal Control in second injection (Antagonist Capsazepine IC100, 50 μM) in Assay buffer plus 0.5% DMSO final; • Column 24: wells containing Capsazepine (Antagonist) at 8 concentrations in duplicate at final concentrations of […] in Assay buffer plus 0.5% DMSO final.\n3. Activator Plate (FIG. 2), containing agonist Cooling Agent 10 at EC80, formulated as follows: • Column 1: Cooling Agent 10 (Agonist) at 8 concentrations dose response in duplicate at final concentrations of […] in Assay buffer; • Columns 2-24: Cooling Agent 10 (Agonist) at EC80 (3 fold concentrated, 20 μM final) in Assay buffer.\nThe test was carried out according to a procedure comprising the following steps: • 1. The samples contained in the wells of the Compound Plate were added to the corresponding wells of the Assay Plate by the FLIPR^TETRA, thus resulting in the addition in Columns 3-22 of the test compounds at 3× concentration to the cells of the assay plates. No mixing was performed in the assay wells and the signal of the emitted fluorescence was recorded for 300 seconds. • 2."}, "[3]": {"biological_target": "CYP2D6 (Homo sapiens, UniProt P10635)", "sequence (P10635 whole entry)": "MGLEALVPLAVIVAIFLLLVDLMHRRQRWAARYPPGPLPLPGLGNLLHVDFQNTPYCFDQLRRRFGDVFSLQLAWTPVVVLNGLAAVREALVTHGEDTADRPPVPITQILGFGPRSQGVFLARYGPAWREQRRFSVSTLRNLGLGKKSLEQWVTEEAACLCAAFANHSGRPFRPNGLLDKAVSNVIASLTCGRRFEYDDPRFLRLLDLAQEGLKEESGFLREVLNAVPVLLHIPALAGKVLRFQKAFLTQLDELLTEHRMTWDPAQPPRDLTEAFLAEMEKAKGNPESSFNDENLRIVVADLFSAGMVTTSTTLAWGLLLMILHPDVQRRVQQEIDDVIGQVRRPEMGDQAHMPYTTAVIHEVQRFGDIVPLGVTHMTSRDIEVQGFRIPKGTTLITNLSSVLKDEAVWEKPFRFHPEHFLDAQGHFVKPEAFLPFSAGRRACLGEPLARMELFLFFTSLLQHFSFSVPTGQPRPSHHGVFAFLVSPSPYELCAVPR", "test": "CYP inhibition 2D6", "type": "in vitro ADME", "conditions": "2D6, 10 μM"}, "[4]": {"test": "Plasma stability, rat", "type": "in vitro ADME"}, "[5]": {"tested_on": "hepatocytes", "test": "Metabolic stability hepatocytes, human", "type": "in vitro ADME"}, "[6]": {"biological_target": "CYP3A4 (Homo sapiens, UniProt P08684)", "sequence (P08684 whole entry)": "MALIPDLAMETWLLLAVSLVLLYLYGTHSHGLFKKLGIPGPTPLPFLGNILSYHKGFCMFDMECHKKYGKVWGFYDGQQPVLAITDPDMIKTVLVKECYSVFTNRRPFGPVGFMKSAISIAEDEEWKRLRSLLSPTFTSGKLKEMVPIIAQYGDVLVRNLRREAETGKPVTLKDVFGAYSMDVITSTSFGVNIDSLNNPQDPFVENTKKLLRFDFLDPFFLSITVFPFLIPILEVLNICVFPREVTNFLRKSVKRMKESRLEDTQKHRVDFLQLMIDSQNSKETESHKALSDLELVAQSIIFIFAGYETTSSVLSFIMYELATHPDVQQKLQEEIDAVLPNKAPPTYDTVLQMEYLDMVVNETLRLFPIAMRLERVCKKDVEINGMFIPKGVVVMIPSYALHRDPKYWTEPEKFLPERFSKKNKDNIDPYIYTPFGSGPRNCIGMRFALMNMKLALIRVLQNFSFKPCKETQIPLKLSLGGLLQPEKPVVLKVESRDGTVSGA", "test": "CYP inhibition 3A4", "type": "in vitro ADME", "conditions": "3A4, 10 μM"}, "[7]": {"biological_target": "T1, CYP1A2 (Homo sapiens, UniProt P05177)", "T1 sequence (P05177 1-516)": "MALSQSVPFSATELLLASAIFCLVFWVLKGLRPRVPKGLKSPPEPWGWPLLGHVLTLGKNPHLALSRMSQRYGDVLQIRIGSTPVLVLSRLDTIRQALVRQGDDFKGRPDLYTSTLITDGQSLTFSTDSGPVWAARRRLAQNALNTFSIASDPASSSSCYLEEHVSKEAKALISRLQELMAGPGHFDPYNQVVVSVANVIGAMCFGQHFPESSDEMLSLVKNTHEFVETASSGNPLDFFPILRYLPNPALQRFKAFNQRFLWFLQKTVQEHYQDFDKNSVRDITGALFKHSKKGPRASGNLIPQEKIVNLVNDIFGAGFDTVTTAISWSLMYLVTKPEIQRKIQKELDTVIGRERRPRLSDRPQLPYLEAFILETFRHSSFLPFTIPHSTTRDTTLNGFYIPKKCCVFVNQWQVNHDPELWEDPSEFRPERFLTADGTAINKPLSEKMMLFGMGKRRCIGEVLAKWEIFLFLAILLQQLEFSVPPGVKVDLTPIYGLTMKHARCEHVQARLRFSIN", "test": "CYP inhibition 1A2", "type": "in vitro ADME", "conditions": "1A2, 10 μM"}},
  "note": "Several values for one entry are separate records, joined by “and”; a condition that tells them apart may be missing. Identical values can stand only once.",
  "data": [
    {"compound": "Cl.Clc1c(OCCNCc2ccco2)ccc2ccccc12", "note": "[Compound 1, 2-[(1-chloronaphthalen-2-yl)oxy]-N-(furan-2-ylmethyl)ethanaminium chloride]", "values": [
      {"measurement": "half-life", "setting": "[1]", "value": 1.05, "unit": "h"},
      {"measurement": "IC50", "setting": "[2]", "value": "< 10000 nM and 70 nM"},
      {"measurement": "inhibition at 10 µM", "setting": "[3]", "value": 100, "unit": "%"},
      {"measurement": "Plasma stability (% remaining) @10 μM", "setting": "[4]", "value": 87, "unit": "%"},
      {"measurement": "Metabolic stability hepatocytes (% remaining at 120 min @1 μM)", "setting": "[5]", "value": 2.6, "unit": "%"},
      {"measurement": "inhibition at 10 µM", "setting": "[6]", "value": 33.3, "unit": "%"},
      {"measurement": "inhibition at 10 µM", "setting": "[7]", "value": 98.8, "unit": "%"}
    ]}
  ]
}
